Measurements taken from paper PMC9909315, “SY-707, an ALK/FAK/IGF1R inhibitor, suppresses growth and metastasis of breast cancer cells” (Acta Biochimica et Biophysica Sinica, 2022).

Legend:
[1] = test system: 4T1 breast cancer metastasis to the lung; assay: Metastasis analysis in vivo (lung nodules, 4T1 model); design: species or system nude mice; details: 4T1, treatment alone: SY-707 100 mg/kg/day PO; paclitaxel 10 or 20 mg/kg/week IV; 20 days; not statistically different
Experimental: Metastasis was detected in mouse lungs after the mice were sacrificed at the last dosing day. The lungs of each mouse were excised immediately and fixed with 4% paraformaldehyde for 24 h, then the lungs were photographed (three photographs per section per mouse) and the metastatic nodules in the lungs were manually counted and the data was analyzed for compound evaluation.
Mice were inoculated with 4T1 cells in PBS at right and left flanks expect the normal control group ( Figure 6A), SY-707 with or without paclitaxel was administered for 20 days when tumor volumes reached 150–300 mm ^3. The mice were sacrificed on the last day of drug administration, then the lungs were collected and metastatic nodules were counted manually for the evaluation of metastasis of 4T1 breast cancer.
The normal group (A) and the vehicle group which treatment with 20% SBE (B) were control. Mouse lungs were taken at the last day of treatment and fixed with 4% paraformaldehyde for 24 h, then the lungs were photographed and the metastatic nodules were counted manually for further analysis. *P<0.05, **P<0.01.

[2] = test system: MCF-7 cells; assay: Cell cycle analysis (PI, flow cytometry); assay type: cell-based; details: MCF-7, 24 h, dose-dependent; decrease of S phase
Experimental: MCF-7 cells were treated with 0.1% DMSO (control) or with SY-707 solution at indicated concentrations for 24 h at 37°C, then the cells were harvested by centrifugation at 350 g and washed twice with PBS. Cell apoptosis was determined using the PE Annexin V Apoptosis Detection kit (BD Biosciences, San Jose, USA) following the manufacture’s guides. Breifly, cells were resuspended with 100 μL of binding buffer containing Annexin V and 7-AAD. After 15 min of incubation at room temperature in the dark, 400 μL of binding buffer was added to the mixture and the cells were analyzed with a Guava flow cytometer (Millipore). Cell cycle arrest was evaluated by incorporation of propidium (PI; Sigma-Aldrich, St Louis, USA) into the permeablized cells. After being treated with DMSO or compounds for 24 h, cells were harvested, washed twice with cold PBS, fixed with ice-cold 70% ethanol, followed by a secondary staining step with staining buffer (0.25 mg/mL RNase, 0.025 mg/mL PI, in PBS) for 1 h at 37°C. Compound regulation of cell-cycle was analyzed using the Guava flow cytometer. Data were analyzed with FlowJo software.

[3] = test system: MDA-MB-231; assay: Cell proliferation assay (CellTiter-Glo/CellTiter-Blue); assay type: cell-based; details: Homo sapiens, MDA-MB-231, 72 h, read-out: IC50 anti-proliferation
Experimental: (§1) MCF-7, T47D, MDA-MB-231, MIA Paca-2, PANC-1, SW620, HT-29, U87MG, and A549 cell lines were purchased from the Cell Bank of Chinese Academy of Science (Shanghai, China). Cells were cultured in DMEM or RPMI-1640 (Gibco, BRL, USA) supplemented with 10% FBS (HyClone, Logan, USA) and 50 IU penicillin/streptomycin in a humidified atmosphere with 5% CO 2 at 37°C. The effects of SY-707 on cell proliferation were measured using CellTiter-Glo ® or CellTiter-Blue ® Cell Viability Assay kits (Promega, Beijing, China). In brief, cells were seeded in 96-well plates at low destiny with 195 μL of medium per well. The stock solutions of compounds were 3-fold serially diluted with DMSO from 10 mM to 0.3 nM, and 4 μL of solution at each concentration was mixed with 96 μL of serum free medium, then 5 μL of the resulted solution was added to each well. After treatment for 72 h, 25 μL of CellTiter-Glo ® reagent (for adherent cells) or 35 μL CellTiter-Blue ® reagent (for suspension cells) was added to each well, and the resulted mixture was further incubated at room temperature for 10 min or 4 h. The luminescence signals were measured using EnVision ® multilabel plate reader (PerkinElmer), and the fluorescent signals were examined using FlexStation 3 (Molecular Devices, Sunnyvale, USA), and the IC 50 values were calculated using Prism ® software (Version 5.0) and presented as the average of three independent experiments performed in duplicate.

[4] = test system: PANC-1; assay: as above; assay type: cell-based; details: Homo sapiens, PANC-1, 72 h, read-out: IC50 anti-proliferation
Experimental: as §1

[5] = test system: T47D; assay: as above; assay type: cell-based; details: Homo sapiens, 72 h, read-out: IC50 anti-proliferation
Experimental: as §1

SMILES: COc1cc(N2CCC(N3CCN(C)CC3)CC2)ccc1Nc1nc2c(c(Nc3ccccc3S(=O)(=O)NC(C)C)n1)CCN2 [SY-707, N-isopropyl-2-((2-((2-methoxy-4-(4-(4-methylpiperazin-1-yl)piperidin-1-yl)phenyl)amino)-6,7-dihydro-5H-pyrrolo[2,3-d]pyrimidin-4-yl)amino)benzenesulfonamide]
- number of metastatic nodules in the lungs vs vehicle group [1]: reduced the number of metastatic nodules
- cell cycle arrest [2]: pronounced G2/M phase arrest
- IC50 [3]: 1900 nM
- IC50 [4]: 1200 nM
- IC50 [5]: 1800 nM
